Assays:
[1] = system: Harding Passey melanoma; conditions: cited from earlier work
[2] = system: rhabdomyo-sarcoma; conditions: cited from earlier work
[3] = system: VX-2 rabbit epitheloma; conditions: cited from earlier work
[4] = system: cancer; conditions: animal tests and human therapy; cited from earlier work
[5] = acute toxicity in Swiss mice; assay type: in vivo, mouse; conditions: mouse, in vivo, Swiss mice
Description: ACUTE TOXICITY IN SWISS MICE
Table III lists the comparative toxicological data concerning Vincristine, Vinblastine and F-leurosine. The new analogue is approximately 7 times less toxic than Vincristine and 4 times less toxic than Vinblastine in acute rodent experiments.

Compound	treatability with hitherto known cytostatics [1]	treatability with hitherto known cytostatics [2]	treatability with hitherto known cytostatics [3]	activity relative to vinblastine [4]	LD50 ([5]; ip, 1 x i.p.) [mg/kg]	LD50 ([5]; iv, 1 x i.v.) [mg/kg]
CC[C@]1(O)C[C@H]2CN(CCc3c([nH]c4ccccc34)[C@@](C(=O)OC)(c3cc4c(cc3OC)N(C=O)[C@H]3[C@@](O)(C(=O)OC)[C@H](OC(C)=O)[C@]5(CC)C=CCN6CC[C@]43[C@@H]65)C2)C1 [Vincristine, leurocristine]	could hardly be treated, if at all	could hardly be treated, if at all	could hardly be treated, if at all	more active both in animal tests, and, primarily, in human therapy	4	3
CC[C@]1(O)C[C@@H]2CN(CCc3c([nH]c4ccccc34)[C@@](C(=O)OC)(c3cc4c(cc3OC)N(C)[C@H]3[C@@](O)(C(=O)OC)[C@H](OC(C)=O)[C@]5(CC)C=CCN6CC[C@]43[C@@H]65)C2)C1 [Vinblastine, vincaleucoblastine]	could hardly be treated, if at all	could hardly be treated, if at all	could hardly be treated, if at all	–	7.6	15

— patent US4279915A, “Method of treatment using new leurosine derivatives” (priority 1973, dated 1981)
